Experimental data published in US9879023B2, “Therapeutic compounds” (Gilead Sciences, Inc., priority 2011, dated 2018).
Like-named read-outs stand apart in the source and are kept apart here.

System: HIV-IIIb (MT-4 cells)
Experiment: Test A: Antiviral Assays in MT4 Cells
Type: cell-based
Protocol: Test A: Antiviral Assays in MT4 Cells
For the antiviral assay utilizing MT-4 cells, 0.4 μL of […] test concentration of 3-fold serially diluted compound in DMSO was added to 40 μL of cell growth medium (RPMI 1640, 10% FBS, 1% penicilline/Streptomycine, 1% L-Glutamine, 1% HEPES) in each well of 384-well assay plates (10 concentrations) in quadruplicate.
1 mL aliquots of 2×10e6 MT-4 cells are pre-infected for 1 and 3 hrs respectively, @37° C. with 25 uL (MT4) or of either cell growth medium (mock-infected) or a fresh 1:250 dilution of an HIV-IIIb concentrated ABI stock (0.004 m.o.i. for MT4 cells). Infected and uninfected cells are diluted in cell growth medium and 35 uL of 2000 (for MT4) cells is added to each well of the assay plates.
Assay plates were then incubated in a 37° C. incubator. After 5 days of incubation, 25 μl of 2× concentrated CellTiter-Glo™ Reagent (catalog # G7573, Promega Biosciences, Inc., Madison, Wis.) was added to each well of the assay plate. Cell lysis was carried out by incubating at room temperature for 2-3 min and then chemiluminescence was read using the Envision reader (PerkinElmer). […]

[1] = MT-4 cells infected with HIV-IIIb (0.004 m.o.i.), 5 days incubation, CellTiter-Glo readout, read-out: EC50
[2] = Human immunodeficiency virus 1, IIIB, MT4, 120 h, MT-4 cells infected with HIV-IIIb (0.004 m.o.i.), 5 days incubation, CellTiter-Glo readout, read-out: EC50

In the case of `Cc1cc2nc(N(C)CC(C)C)sc2c(-c2ccc3c4c(ccnc24)CCO3)c1[C@H](OC(C)(C)C)C(=O)O` (atropisomer, axis not shown) [Compound 49, (S)-2-tert-butoxy-2-((R)-7-(2,3-dihydropyrano[4,3,2-de]quinolin-7-yl)-2-(isobutyl(methyl)amino)-5-methylbenzo[d]thiazol-6-yl)acetic acid], the EC50 [1] is reported as 13300 nM.

For `Cc1cc2nc(C3CC3)sc2c(-c2ccc3c(c2Cl)NCCO3)c1[C@H](OC(C)(C)C)C(=O)O` (atropisomer, axis not shown) [Compound 86, (S)-2-tert-butoxy-2-((S)-7-(5-chloro-3,4-dihydro-2H-benzo[b][1,4]oxazin-6-yl)-2-cyclopropyl-5-methylbenzo[d]thiazol-6-yl)acetic acid], the EC50 [1] was 61.7 nM.

`Cc1cc2nc(N(C)C)sc2c(-c2ccc3c4c(ccnc24)CCO3)c1[C@H](OC(C)(C)C)C(=O)O` [Compound 42, (S)-2-tert-butoxy-2-((S)-7-(2,3-dihydropyrano[4,3,2-de]quinolin-7-yl)-2-(dimethylamino)-5-methylbenzo[d]thiazol-6-yl)acetic acid] gave an EC50 [2] of 10.3 nM.

Compound `Cc1cc2nc(N(C)CCN(C)C)sc2c(-c2ccc3c4c(ccnc24)CCO3)c1[C@H](OC(C)(C)C)C(=O)O` (atropisomer, axis not shown) [Compound 61, (S)-2-tert-butoxy-2-((S)-7-(2,3-dihydropyrano[4,3,2-de]quinolin-7-yl)-2-((2-(dimethylamino)ethyl)(methyl)amino)-5-methylbenzo[d]thiazol-6-yl)acetic acid] has an EC50 [1] of 987 nM.

In the case of `Cc1cc2nc(CC(C)C)sc2c(-c2ccc3c4c(ccnc24)CCO3)c1[C@H](OC(C)(C)C)C(=O)O` (atropisomer, axis not shown) [Compound 84, (S)-2-tert-butoxy-2-((R)-7-(2,3-dihydropyrano[4,3,2-de]quinolin-7-yl)-2-isobutyl-5-methylbenzo[d]thiazol-6-yl)acetic acid], the EC50 [1] is reported as 14900 nM.

`Cc1cc2nc(C3CCCC3)sc2c(-c2ccc3c4c(ccnc24)CCO3)c1[C@H](OC(C)(C)C)C(=O)O` (atropisomer, axis not shown) [Compound 80, (S)-2-tert-butoxy-2-((S)-2-cyclopentyl-7-(2,3-dihydropyrano[4,3,2-de]quinolin-7-yl)-5-methylbenzo[d]thiazol-6-yl)acetic acid] gave an EC50 [1] of 136 nM.

`Cc1nc2cc(C)c([C@H](OC(C)(C)C)C(=O)O)c(-c3ccc(Cl)cc3)c2s1` [Compound 7, (S)-2-tert-butoxy-2-(7-(4-chlorophenyl)-2,5-dimethylbenzo[d]thiazol-6-yl)acetic acid] showed an EC50 [2] of 257 nM.

With `Cc1cc2nc(C3=CCCC3)sc2c(-c2ccc3c4c(ccnc24)CCO3)c1[C@H](OC(C)(C)C)C(=O)O` (atropisomer, axis not shown) [Compound 79, (S)-2-tert-butoxy-2-((R)-2-cyclopentenyl-7-(2,3-dihydropyrano[4,3,2-de]quinolin-7-yl)-5-methylbenzo[d]thiazol-6-yl)acetic acid] the EC50 [1] was 45900 nM.

`Cc1cc2nc(N(C)C)sc2c(-c2ccc3c4c(ccnc24)CCO3)c1[C@H](OC(C)(C)C)C(=O)O` (atropisomer, axis not shown) [Compound 43, (S)-2-tert-butoxy-2-((R)-7-(2,3-dihydropyrano[4,3,2-de]quinolin-7-yl)-2-(dimethylamino)-5-methylbenzo[d]thiazol-6-yl)acetic acid] was tested, and the EC50 (Human immunodeficiency virus 1, IIIB, MT4, 120 h) was 5090 nM.

`Cc1cc2c(sc(=O)n2Cc2ccccc2)c(-c2ccc3c4c(ccnc24)CCO3)c1[C@H](OC(C)(C)C)C(=O)O` (atropisomer, axis not shown) [Compound 72, (S)-2-((S)-3-benzyl-7-(2,3-dihydropyrano[4,3,2-de]quinolin-7-yl)-5-methyl-2-oxo-2,3-dihydrobenzo[d]thiazol-6-yl)-2-tert-butoxyacetic acid] was tested, and the EC50 [2] was 29.8 nM.

`CCc1nc2cc(C)c([C@H](OC(C)(C)C)C(=O)O)c(-c3ccc(Cl)cc3)c2s1` [Compound 9] was tested, and the EC50 [2] was 118 nM.

Compound `Cc1cc2nc(N3CCC3)sc2c(-c2ccc3c4c(ccnc24)CCO3)c1[C@H](OC(C)(C)C)C(=O)O` [Compound 35, (S)-2-((S)-2-(azetidin-1-yl)-7-(2,3-dihydropyrano[4,3,2-de]quinolin-7-yl)-5-methylbenzo[d]thiazol-6-yl)-2-tert-butoxyacetic acid] has an EC50 [1] of 12.7 nM.

Compound `Cc1cc2nc(N(C)Cc3ccccc3)sc2c(-c2ccc3c4c(ccnc24)CCO3)c1[C@H](OC(C)(C)C)C(=O)O` [Compound 63, (2S)-2-(2-(benzyl(methyl)amino)-7-(2,3-dihydropyrano[4,3,2-de]quinolin-7-yl)-5-methylbenzo[d]thiazol-6-yl)-2-tert-butoxyacetic acid] has an EC50 [2] of 351 nM.

`Cc1cc2nc(C#CC3CC3)sc2c(-c2ccc(Cl)cc2)c1[C@H](OC(C)(C)C)C(=O)O` [Compound 14] was tested, and the EC50 [2] was 718 nM.

`Cc1cc2nc(CC(C)C)sc2c(-c2ccccc2)c1[C@H](OC(C)(C)C)C(=O)O` [Compound 8K, (S)-2-tert-butoxy-2-(2-isobutyl-5-methyl-7-phenylbenzo[d]thiazol-6-yl)acetic acid] showed an EC50 [2] of 641 nM.

`Cc1cc2nc(C3CCCC3)sc2c(-c2ccc3c4c(ccnc24)CCO3)c1[C@H](OC(C)(C)C)C(=O)O` (atropisomer, axis not shown) [Compound 81, (S)-2-tert-butoxy-2-((R)-2-cyclopentyl-7-(2,3-dihydropyrano[4,3,2-de]quinolin-7-yl)-5-methylbenzo[d]thiazol-6-yl)acetic acid] gave an EC50 [1] of 27400 nM.

Compound `Cc1cc2nc(N(C)CC(=O)N(C)C)sc2c(-c2ccc3c4c(ccnc24)CCO3)c1[C@H](OC(C)(C)C)C(=O)O` (atropisomer, axis not shown) [Compound 64, (S)-2-tert-butoxy-2-((R)-7-(2,3-dihydropyrano[4,3,2-de]quinolin-7-yl)-2-((2-(dimethylamino)-2-oxoethyl)(methyl)amino)-5-methylbenzo[d]thiazol-6-yl)acetic acid] has an EC50 [2] of 53000 nM.

Compound `Cc1cc2nc(N3CCC3)sc2c(-c2ccc3c4c(ccnc24)CCO3)c1[C@H](OC(C)(C)C)C(=O)O` [Compound 36, (S)-2-((R)-2-(azetidin-1-yl)-7-(2,3-dihydropyrano[4,3,2-de]quinolin-7-yl)-5-methylbenzo[d]thiazol-6-yl)-2-tert-butoxyacetic acid] has an EC50 [1] of 6210 nM.

Work on `Cc1cc2ncsc2c(-c2ccc(Cl)cc2)c1[C@H](OC(C)(C)C)C(=O)O` [Compound 5L, (S)-2-tert-butoxy-2-(7-(4-chlorophenyl)-5-methylbenzo[d]thiazol-6-yl)acetic acid] yielded an EC50 [2] of 2950 nM.

`CCN(CC)c1nc2cc(C)c([C@H](OC(C)(C)C)C(=O)O)c(-c3ccc4c5c(ccnc35)CCO4)c2s1` (atropisomer, axis not shown) [Compound 45, (S)-2-tert-butoxy-2-((S)-2-(diethylamino)-7-(2,3-dihydropyrano[4,3,2-de]quinolin-7-yl)-5-methylbenzo[d]thiazol-6-yl)acetic acid] was tested, and the EC50 [2] was 67 nM.

`Cc1cc2nc(N(C)CC(C)C)sc2c(-c2ccc3c4c(ccnc24)CCO3)c1[C@H](OC(C)(C)C)C(=O)O` (atropisomer, axis not shown) [Compound 48, (S)-2-tert-butoxy-2-((S)-7-(2,3-dihydropyrano[4,3,2-de]quinolin-7-yl)-2-(isobutyl(methyl)amino)-5-methylbenzo[d]thiazol-6-yl)acetic acid] gave an EC50 [1] of 67 nM.
